Source: patent US6455550B1, “N-alkanoylphenylalanine derivatives” (Hoffmann-La Roche Inc., priority 1997, dated 2002)
Structures can show the parent of a compound that is named as a salt.

What follows are molecules tested against T1, cell-surface VLA-4 (α4β1 integrin) on Ramos cells binding to immobilized VCAM-1 (Homo sapiens, UniProt P05556+P13612) (assay: Ramos (VLA-4)/VCAM-1 Cell-Based Screening Assay (cell adhesion)). Settings: Calcein-AM labeled Ramos cells, VCAM-1 coated plates, 45 min at room temperature; read-out: IC50 in Ramos Cell Based Assay.
T1 construct: Ramos cells bearing cell-surface VLA-4; endogenous in cells; host or cells: Ramos cells (VLA-4); VCAM-1 purified from CHO cell culture media
T1 sequence (P13612 34-1032): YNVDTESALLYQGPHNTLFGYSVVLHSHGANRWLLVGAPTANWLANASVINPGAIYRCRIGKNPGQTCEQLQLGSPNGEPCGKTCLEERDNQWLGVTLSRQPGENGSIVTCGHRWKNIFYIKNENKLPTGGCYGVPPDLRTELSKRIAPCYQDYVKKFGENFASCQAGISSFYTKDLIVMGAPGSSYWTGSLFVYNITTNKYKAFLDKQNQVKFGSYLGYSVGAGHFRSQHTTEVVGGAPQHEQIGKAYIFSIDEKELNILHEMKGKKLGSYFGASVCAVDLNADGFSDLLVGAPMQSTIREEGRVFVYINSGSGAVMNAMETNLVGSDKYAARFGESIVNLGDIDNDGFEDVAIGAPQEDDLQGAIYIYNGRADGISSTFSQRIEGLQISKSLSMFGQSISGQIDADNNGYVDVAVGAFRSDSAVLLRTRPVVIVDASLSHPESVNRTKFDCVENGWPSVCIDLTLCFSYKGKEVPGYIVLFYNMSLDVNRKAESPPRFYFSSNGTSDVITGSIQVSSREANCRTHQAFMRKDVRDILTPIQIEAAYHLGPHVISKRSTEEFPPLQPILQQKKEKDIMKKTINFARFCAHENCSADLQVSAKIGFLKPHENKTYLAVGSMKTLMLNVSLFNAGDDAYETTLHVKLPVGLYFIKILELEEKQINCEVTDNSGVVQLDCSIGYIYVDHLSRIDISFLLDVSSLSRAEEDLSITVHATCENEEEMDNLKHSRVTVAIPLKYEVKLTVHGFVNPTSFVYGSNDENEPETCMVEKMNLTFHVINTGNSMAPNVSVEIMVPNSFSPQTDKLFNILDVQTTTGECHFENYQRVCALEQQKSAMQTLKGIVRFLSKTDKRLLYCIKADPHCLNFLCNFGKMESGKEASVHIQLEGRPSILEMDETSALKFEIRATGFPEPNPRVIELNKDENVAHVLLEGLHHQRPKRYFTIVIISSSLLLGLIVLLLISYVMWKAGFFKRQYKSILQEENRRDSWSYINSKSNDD
T1 sequence (P05556 21-798): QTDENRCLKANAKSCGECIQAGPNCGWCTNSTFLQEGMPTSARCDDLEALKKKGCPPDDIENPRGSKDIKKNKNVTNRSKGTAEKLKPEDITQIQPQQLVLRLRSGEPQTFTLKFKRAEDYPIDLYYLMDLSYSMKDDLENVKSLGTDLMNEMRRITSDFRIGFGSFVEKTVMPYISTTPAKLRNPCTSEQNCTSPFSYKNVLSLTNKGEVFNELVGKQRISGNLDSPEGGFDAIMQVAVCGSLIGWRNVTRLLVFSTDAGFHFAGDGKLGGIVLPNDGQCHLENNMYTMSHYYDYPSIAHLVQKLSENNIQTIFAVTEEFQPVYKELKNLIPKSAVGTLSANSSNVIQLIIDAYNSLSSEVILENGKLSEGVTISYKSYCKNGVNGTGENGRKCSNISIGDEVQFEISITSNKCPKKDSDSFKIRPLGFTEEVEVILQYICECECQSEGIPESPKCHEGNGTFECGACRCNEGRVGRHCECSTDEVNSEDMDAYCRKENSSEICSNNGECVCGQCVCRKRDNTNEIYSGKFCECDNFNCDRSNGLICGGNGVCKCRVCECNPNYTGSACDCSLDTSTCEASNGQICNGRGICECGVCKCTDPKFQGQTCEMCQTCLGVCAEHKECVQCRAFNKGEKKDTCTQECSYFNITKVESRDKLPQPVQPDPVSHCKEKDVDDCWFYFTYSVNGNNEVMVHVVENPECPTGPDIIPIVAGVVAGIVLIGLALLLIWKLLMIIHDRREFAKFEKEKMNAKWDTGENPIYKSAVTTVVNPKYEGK
Description: Calcein-AM was purchased from Molecular Probes Inc.
VLA-4 (α4β1 integrin) antagonist activity, defined as ability to compete with cell-surface VLA-4 for binding to immobilized VCAM-1, was quantitated using a Ramos-VCAM-1 cell adhesion assay. Ramos cells bearing cell-surface VLA-4, were labeled with a fluorescent dye (Calcein-AM) and allowed to bind VCAM-1 in the presence or absence of test compounds.
Initially, this entailed coating 96 well plates (Nunc Maxisorp) with recombinant human VCAM-1 (100 ng in 100 μl PBS), sealing each plate and allowing the plates to stand at 4° C for Å18 hr. The VCAM-coated plates were subsequently washed twice with 0.05% Tween-20 in PBS, and then blocked for 1hr (room temperature) with 200 μl of Blocking Buffer (1% BSA/0.02% thimerosal) to reduce non-specific binding. Following the incubation with Blocking Buffer, plates were inverted, blotted and the remaining buffer aspirated. Each plate was then washed with 300 μl PBS, inverted and the remaining PBS aspirated.
Test compounds were dissolved in 100% DMSO and then diluted 1:25 in VCAM Cell Adhesion Assay Buffer (4 mM CaCl2, 4 mM MgCl2 in 50 mM TRIS-HCl, pH 7.5) (final DMSO=4%). […] 100 μl/well of each dilution was added to the VCAM-coated plates, followed by 100 μl of Ramos cells (200,000 cells/well in 1% BSA/PBS). […] Plates were inverted to remove non-adherent cells, blotted and 300 μl/well PBS added. Plates were again inverted, blotted and the remaining buffer gently aspirated. 100 μl Lysis Buffer (0.1% SDS in 50 mM TRIS-HCl, pH 8.5) was added to each well and agitated for 2 min on a rotary shaking platform.

IC50	Compound
130 nM	COC(=O)NC(=O)NCCC1(C(=O)N[C@@H](Cc2ccc(NC(=O)c3c(Cl)cccc3Cl)cc2)C(=O)O)CCCC1 [Example 189]
2.9 nM	COc1ccc(C[C@@H]2C(=O)N(c3ccc(C[C@H](NC(=O)C4(CCNC(C)=O)CCCC4)C(=O)O)cc3)C(c3ccccc3)N2C(=O)COc2ccccc2)cc1 (single isomer, unassigned) [Example 284]
1.7 nM	CC(=O)NCCC1(C(=O)N[C@@H](Cc2ccc(N3C(=O)[C@@H](Cc4cccnc4)N(C(C)=O)C3c3ccccc3)cc2)C(=O)O)CCCC1 (single isomer, unassigned) [Example 299]
322 nM	O=C(NCCC1(C(=O)N[C@@H](Cc2ccc(NC(=O)c3c(Cl)cccc3Cl)cc2)C(=O)O)CCCC1)NCc1ccccc1 [Example 191]
19 nM	CCCC(=O)N1C(c2ccccc2)N(c2ccc(C[C@H](NC(=O)C3(CCNC(C)=O)CCCC3)C(=O)O)cc2)C(=O)[C@H]1C (single isomer, unassigned) [Example 344]
4.2 nM	CCCC(=O)N1C(c2ccccc2)N(c2ccc(C[C@H](NC(=O)C3(CCNC(C)=O)CCCC3)C(=O)O)cc2)C(=O)[C@H]1Cc1ccc(OC)cc1 (single isomer, unassigned) [Example 280]
13 nM	CCCC(=O)N1C(c2ccc(Cl)cc2)N(c2ccc(C[C@H](NC(=O)C3(CCNC(C)=O)CCCC3)C(=O)O)cc2)C(=O)[C@H]1C (single isomer, unassigned) [Example 351]
184 nM	[N-]=[N+]=NCCCCC1(C(=O)N[C@@H](Cc2ccc(NC(=O)c3c(Cl)cccc3Cl)cc2)C(=O)O)CCCC1 [Example 261]
13.5 nM	COCCC1(C(=O)N[C@@H](Cc2ccc(NC(=O)c3c(Cl)cccc3Cl)cc2)C(=O)O)CCCC1 [Example 59]
40 nM	COc1ccc(C[C@@H]2C(=O)N(c3ccc(C[C@H](NC(=O)C4(CCNC(C)=O)CCCC4)C(=O)O)cc3)C(CCc3ccccc3)N2C(C)=O)cc1 (single isomer, unassigned) [Example 293]

Compound	IC50
CSCCCCC1(C(=O)N[C@@H](Cc2ccc(NC(=O)c3c(Cl)cccc3Cl)cc2)C(=O)O)CCCC1 [Example 260]	130 nM
CCCC(=O)N1C(c2ccc(Cl)cc2)N(c2ccc(C[C@H](NC(=O)C3(CCNC(C)=O)CCCC3)C(=O)O)cc2)C(=O)[C@H]1Cc1ccccc1 (single isomer, unassigned) [Example 322]	5 nM
CC(=O)NCCCC1(C(=O)N[C@@H](Cc2ccc(NC(=O)c3c(Cl)cccc3Cl)cc2)C(=O)O)CCCC1 [Example 276, N-[[1-(3-(Acetylamino)propyl]cyclopenyl]carbonyl]-4-[[(2,6-dichlorophenyl)carbonyl]amino]-L-phenylalanine]	22 nM
COc1ccc(C[C@@H]2C(=O)N(c3ccc(C[C@H](NC(=O)C4(CCNC(C)=O)CCCC4)C(=O)O)cc3)C(c3ccccc3)N2C(C)=O)cc1 (single isomer, unassigned) [Example 278]	2 nM

Same assay, conditions: Conc. 10 nM; Ramos cell adhesion to VCAM-1

inhibition at 0.01 µM	Compound
68%	CCCC(=O)N1C(Cc2ccccc2)C(=O)N(c2ccc(CC(NC(=O)C3(CCNC(C)=O)CCCC3)C(=O)O)cc2)C1c1ccccc1 (single isomer, unassigned) [Example 313]
58%	CC(=O)NCCC1(C(=O)NC(Cc2ccc(N3C(=O)C(C)N(C(=O)COc4ccccc4)C3c3ccccc3)cc2)C(=O)O)CCCC1 (single isomer, unassigned) [Example 349]
48%	COc1ccc(CC2C(=O)N(c3ccc(CC(NC(=O)C4(CCNC(C)=O)CCCC4)C(=O)O)cc3)C(c3ccc(Cl)cc3)N2C(=O)COc2ccccc2)cc1 (single isomer, unassigned) [Example 291]
59%	CCCC(=O)N1C(Cc2ccccc2)C(=O)N(c2ccc(CC(NC(=O)C3(CCNC(C)=O)CCCC3)C(=O)O)cc2)C1c1ccc(Cl)cc1 (single isomer, unassigned) [Example 321]
24%	CC(=O)NCCC1(C(=O)NC(Cc2ccc(N3C(=O)C(C)N(C(C)=O)C3c3ccccc3)cc2)C(=O)O)CCCC1 (single isomer, unassigned) [Example 342]
92%	CCCC(=O)N1C(Cc2ccc(OC)cc2)C(=O)N(c2ccc(CC(NC(=O)C3(CCNC(C)=O)CCCC3)C(=O)O)cc2)C1c1ccc(Cl)cc1 (single isomer, unassigned) [Example 288]

Same assay, conditions: IC50 in Ramos Cell Based Assay (nM), Calcein-AM labeled Ramos cells, VCAM-1 coated plates, 45 min at room temperature

Compound	IC50
CC(C)(C)C(=O)NCCC1(C(=O)N[C@@H](Cc2ccc(NC(=O)c3c(Cl)cccc3Cl)cc2)C(=O)O)CCCC1 [Example 156, 4-[[(2,6-dichlorophenyl)carbonyl]amino]-N-[[1-[2-[[N-(1,1-dimethylethyl)carbonyl]amino]ethyl]cyclopentyl]carbonyl]-L-phenylalanine]	28 nM
NC(=O)NCCC1(C(=O)N[C@@H](Cc2ccc(NC(=O)c3c(Cl)cccc3Cl)cc2)C(=O)O)CCCC1 [Example 188]	36 nM
N#CCCCCC1(C(=O)N[C@@H](Cc2ccc(NC(=O)c3c(Cl)cccc3Cl)cc2)C(=O)O)CCCC1 [Example 262]	39 nM
CSCCCCC1(C(=O)N[C@@H](Cc2ccc(NC(=O)c3c(Cl)cccc3Cl)cc2)C(=O)O)CCCC1 [Example 260]	94 nM

What follows are molecules tested against T2, VLA-4 (α4β1 integrin) binding to immobilized VCAM-1 (Homo sapiens, UniProt P05556+P13612) (assay: VLA-4/VCAM-1 Screening Assay (solid-phase, dual antibody ELISA)). Settings: not given.
T2 construct: followed by 10 μl of Ramos cell-derived VLA-4; endogenous in cells; host or cells: Ramos cells (VLA-4 preparation derived from the cells)
T2 sequence (P13612 34-1032): as the sequence (P13612 34-1032) above
T2 sequence (P05556 21-798): as the sequence (P05556 21-798) above
Procedure: VLA-4 antagonist activity, defined as ability to compete for binding to immobilized VCAM-1 was quantitated using a solid-phase, dual antibody ELISA. VLA-4 (α4β1 integrin) bound to VCAM-1 was detected by a complex of anti-integrin β1 antibody: HRP-conjugated anti-mouse IgG: chromogenic substrate (K-Blue). Initially, this entailed coating 96 well plates (Nunc Maxisorp) with recombinant human VCAM-1 (0.4 μg in 100 μl PBS), sealing each plate and then allowing the plates to stand at 4° C for Å18 hr. […] On the day of assay, all plates were washed twice with VCAM Assay Buffer (200 μl/well of 50 mM Tris-HCl, 100 mM NaCl, 1 mM MnCl2, 0.05% Tween 20; pH 7.4). Test compounds were dissolved in 100% DMSO and then diluted 1:20 in VCAM Assay Buffer supplemented with 1 mg/mL BSA (i.e., final DMSO=5%). […] 100 μl per well of each dilution was added to the VCAM-coated plates, followed by 10 μl of Ramos cell-derived VLA-4. These plates were sequentially mixed on a platform shaker for 1 min, incubated for 2 hr at 37° C. and then washed four times with 200 μl/well VCAM Assay Buffer. 100 μl of mouse anti-human integrin β1 antibody was added to each well (0.6 μg/mL in VCAM Assay Buffer+1 mg/mL BSA) and allowed to incubate for 1 hr at 37° C. At the conclusion of this incubation period, all plates were washed four times with VCAM Assay Buffer (200 μl/well). A corresponding second antibody, HRP-conjugated goat anti-mouse IgG (100 μl per well @1:800 dilution in VCAM Assay Buffer+1 mg/mL BSA), was then added to each well, followed by a 1 hr incubation at room temperature and concluded by three washes (200 μl/well) with VCAM Assay Buffer. Color development was initiated by addition of 100 μl K-Blue per well (15 min incubation, room temp) and terminated by addition of 100 μl Red Stop Buffer per well. […] Results were calculated as % inhibition of total binding (i.e., VLA-4+VCAM-1 in the absence of test compound).

Compound	inhibition at 0.01 µM	inhibition at 0.1 µM
O=C(Nc1ccc(C[C@H](NC(=O)C2(c3ccccc3)CCCC2)C(=O)O)cc1)c1ccnc2ccccc12 [Example 75]	68%	92%

Same assay, conditions: Ramos cell-derived VLA-4, recombinant human VCAM-1 coated plates, 2 hr at 37° C.; read-out: IC50

IC50	Compound
40 nM	CCCCC(C)(CC)C(=O)N[C@@H](Cc1ccc(NC(=O)[C@H](Cc2ccc(O)cc2)NC(C)=O)cc1)C(=O)O (stereo partly drawn) [Example 91]
155 nM	COc1ccc(C2(C(=O)N[C@@H](Cc3ccc(NS(=O)(=O)c4c(C)cc(C)cc4C)cc3)C(=O)O)CCCCC2)cc1 [Example 114, N-[[1-(4-Methoxyphenyl)cyclohexyl]carbonyl]-4-[[(2,4,6-trimethylphenyl)sulfonyl]amino]-L-phenylalanine]
3.9 nM	CCCCC(C)(CC)C(=O)N[C@@H](Cc1ccc(NC(=O)c2c(Cl)cccc2Cl)cc1)C(=O)O (stereo partly drawn) [Example 88]
63 nM	COCCC1(C(=O)NC(Cc2ccc(N3C(=O)C(CC(C)C)N(C(C)=O)C3c3ccc(OC)cc3)cc2)C(=O)O)CCCC1 (single isomer, unassigned) [Example 131]
5 nM	COc1ccc(CC2(C(=O)N[C@@H](Cc3ccc(NC(=O)N4CCC(C#N)(c5ccccc5)CC4)cc3)C(=O)O)CCCC2)cc1 [Example 119]
0.42 nM	COCCC1(C(=O)NC(Cc2ccc(N3C(=O)C(CC(C)C)N(C(C)=O)C3c3ccc(Cl)cc3)cc2)C(=O)O)CCCC1 (single isomer, unassigned) [Example 138]
6.8 nM	CC(=O)N[C@@H](Cc1ccc(O)cc1)C(=O)Nc1ccc(C[C@H](NC(=O)C23CC4CC(CC(C4)C2)C3)C(=O)O)cc1 [Example 86]

Compound	IC50
COc1ccc(CC2(C(=O)N[C@@H](Cc3ccc(N4C(=O)c5ccccc5C4=O)cc3)C(=O)O)CCCC2)cc1 [Example 110]	8.2 nM
O=C(Nc1ccc(C[C@H](NC(=O)C2(c3ccccc3)CCCC2)C(=O)O)cc1)c1ccnc2ccccc12 [Example 27, N-[(1-Phenylcyclopentyl)carbonyl]-4-[(4-quinolinylcarbonyl)amino]-L-phenylalanine Sodium Salt]	2.7 nM
O=C(Nc1ccc(C[C@H](NC(=O)C2(c3ccccc3)CCCC2)C(=O)O)cc1)c1ccnc2ccccc12 [Example 75]	3.8 nM
